These results are taken from patent US20190110971A1, “COMPOSITIONS FOR MANAGING PLAQUE FORMATION” (THE REGENTS OF THE UNIVERSITY OF CALIFORNIA, priority 2016, published 2019).

For the experiment, the system named is bracket-induced plaque formation (saliva-derived plaques on HA discs with brackets). Description: in vitro bracket-induced biofilm model system, crystal violet assay. The experiment is classed as cell-based. As to conditions: in vitro grown plaques from pooled human saliva, FIG. 5B/5C. The source says:
These discs were then fitted into 12-well tissue culture plates for the growth of saliva-derived plaques. One unique feature of this system is use of a new culture medium developed by this laboratory (Shi-medium, Tian Y 2010) which allows the biofilm grown in vitro to be very similar to in vivo human plaque.
A mixed pool of human saliva samples was collected from 10 volunteers to develop in vitro grown plaques on the model system developed above. Amino acids and sugar monomers and analogs were selected mostly from the list of FDA Generally Recognized As Safe (GRAS) compounds (http://www.fda.gov/Food/Ingredients PackagingLabeling/GRAS/SCOGS/ default.htm). The anti-biofilm inhibitory function of these chemicals was assayed with a crystal violet assay (Sharma A 2005), as illustrated in FIG. 5A. The compounds with more than 10× inhibitory effects were further investigated.

On to `NCCCC[C@@H](N)C(=O)O` [D-Lys, D-lysine], for which the “inhibitory effects against bracket-induced plaque formation” value (“inhibitory effects” below) is “strong inhibitory effects”.

As for `NCCCC[C@H](N)C(=O)O` [L-Lys, L-lysine], the “inhibitory effects” value was “strong inhibitory effects”.

Take `C[C@@H](N)C(=O)O` [D-Ala, D-alanine]: the “inhibitory effects” value was “strong inhibitory effects”.

Regarding `CC(=O)N[C@H]1C(O)O[C@H](CO)[C@@H](O)[C@@H]1O` (stereo partly drawn) [N-acyl-Glucosamine, N-acetylglucosamine], the “inhibitory effects” value was “strong inhibitory effects”.

`C[C@H](O)[C@@H](N)C(=O)O` [D-Thr, D-threonine]: the “inhibitory effects” value was “strong inhibitory effects”.

For the molecule `N=C(N)NCCC[C@H](N)C(=O)O` [L-Arg, L-arginine], the “inhibitory effects” value was “strong inhibitory effects”.
